For 2 compounds, IC50 and EC50 results are on record in ChEMBL document CHEMBL1201862, “PubChem BioAssay data set” (2004).

The structures appear in SMILES notation. Activity calls are given as the source filed them. Bounds are passed on as bounds.

In assay [1] the target is T1, Dual specificity protein phosphatase 6 (Rattus norvegicus, UniProt Q64346).
T1 sequence (Q64346 whole entry): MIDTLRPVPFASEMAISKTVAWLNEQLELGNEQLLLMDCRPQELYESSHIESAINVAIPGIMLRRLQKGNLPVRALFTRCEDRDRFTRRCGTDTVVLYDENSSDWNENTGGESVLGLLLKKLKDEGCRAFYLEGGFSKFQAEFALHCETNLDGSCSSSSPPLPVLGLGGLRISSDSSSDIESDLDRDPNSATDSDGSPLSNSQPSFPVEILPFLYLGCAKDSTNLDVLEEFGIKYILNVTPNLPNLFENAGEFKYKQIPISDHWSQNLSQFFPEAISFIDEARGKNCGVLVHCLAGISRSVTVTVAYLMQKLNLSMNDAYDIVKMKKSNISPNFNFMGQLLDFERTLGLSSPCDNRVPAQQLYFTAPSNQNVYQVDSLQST
In words: inhibition of rat DUSP6 enzyme activity – biochemical, in vitro, primary screen (AID 425).

In assay [2] the target is T2, Tyrosine-protein phosphatase non-receptor type 22 (Homo sapiens, UniProt Q9Y2R2).
T2 sequence (Q9Y2R2 whole entry): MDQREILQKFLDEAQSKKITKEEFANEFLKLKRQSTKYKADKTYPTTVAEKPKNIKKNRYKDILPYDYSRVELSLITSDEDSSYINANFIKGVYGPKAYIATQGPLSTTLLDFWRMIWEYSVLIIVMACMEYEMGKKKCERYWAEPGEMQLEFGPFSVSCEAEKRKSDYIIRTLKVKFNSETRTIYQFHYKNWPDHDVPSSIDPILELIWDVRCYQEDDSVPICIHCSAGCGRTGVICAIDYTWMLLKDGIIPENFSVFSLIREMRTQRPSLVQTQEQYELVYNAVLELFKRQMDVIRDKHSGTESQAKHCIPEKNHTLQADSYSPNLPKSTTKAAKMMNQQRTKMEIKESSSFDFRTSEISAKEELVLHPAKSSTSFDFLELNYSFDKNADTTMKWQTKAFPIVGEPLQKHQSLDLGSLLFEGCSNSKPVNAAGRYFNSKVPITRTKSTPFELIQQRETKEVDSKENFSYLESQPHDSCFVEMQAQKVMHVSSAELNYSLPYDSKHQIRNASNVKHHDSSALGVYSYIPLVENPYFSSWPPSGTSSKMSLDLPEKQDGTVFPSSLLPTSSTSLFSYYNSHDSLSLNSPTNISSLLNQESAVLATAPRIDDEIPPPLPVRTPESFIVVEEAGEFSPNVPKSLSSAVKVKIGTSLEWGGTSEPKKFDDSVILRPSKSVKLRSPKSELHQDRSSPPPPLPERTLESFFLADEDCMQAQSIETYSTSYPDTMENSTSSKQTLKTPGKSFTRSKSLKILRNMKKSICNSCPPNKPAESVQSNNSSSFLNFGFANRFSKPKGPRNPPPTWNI
In words: PTPN22 lymphoid phosphatase activity blockers – biochemical, fluorescence intensity, uHTS (AID 1779).

The target of assay [3] is Melanin-concentrating hormone receptor 1 (Homo sapiens, UniProt Q99705). The assay is described as follows: Fluorescence-based counterscreen for antagonists of the G-protein coupled receptor 7 (GPR7): cell-based high throughput dose response assay to identify antagonists of the melanin-concentrating hormone receptor 1 (MCHR1). Type of assay: functional.
Chain of Melanin-concentrating hormone receptor 1 (Q99705 whole entry): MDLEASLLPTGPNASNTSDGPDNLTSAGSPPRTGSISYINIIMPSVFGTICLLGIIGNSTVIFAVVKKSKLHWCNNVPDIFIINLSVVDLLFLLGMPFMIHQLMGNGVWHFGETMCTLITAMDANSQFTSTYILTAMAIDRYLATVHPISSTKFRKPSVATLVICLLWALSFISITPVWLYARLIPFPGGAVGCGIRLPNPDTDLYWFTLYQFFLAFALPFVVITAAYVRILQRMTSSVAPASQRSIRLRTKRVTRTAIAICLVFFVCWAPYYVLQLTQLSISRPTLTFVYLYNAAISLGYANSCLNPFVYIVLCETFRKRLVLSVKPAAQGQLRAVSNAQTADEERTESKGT
Assay [4] addresses T3, Neuropeptides B/W receptor type 1 (Homo sapiens, UniProt P48145).
T3 sequence (P48145 whole entry): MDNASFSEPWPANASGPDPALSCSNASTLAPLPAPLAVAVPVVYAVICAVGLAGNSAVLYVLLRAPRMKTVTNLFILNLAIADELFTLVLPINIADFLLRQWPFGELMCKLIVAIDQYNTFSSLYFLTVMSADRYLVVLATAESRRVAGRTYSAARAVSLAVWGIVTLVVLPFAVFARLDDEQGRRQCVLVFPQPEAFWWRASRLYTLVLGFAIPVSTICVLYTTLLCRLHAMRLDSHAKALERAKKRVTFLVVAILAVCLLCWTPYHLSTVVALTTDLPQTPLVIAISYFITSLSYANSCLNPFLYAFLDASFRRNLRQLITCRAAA
The assay is described as follows: Fluorescence-based dose response cell-based high throughput screening assay to identify antagonists of the G-protein coupled receptor 7 (GPR7). [Related pubchem assays: 1952 (Screening assay (GPR7 antagonists).), 1880 (Summary AID.)]. The class given is functional.

Assay [5] is described as follows: fluconazole-exposed Candida albicans growth modulators – fluorescence, retest, confirmation (AID 2467). Type of assay: functional, cell-based.

For the compound `O=C(O)COc1ccc(/C=N/NC(=O)c2ccc(-c3csc(Nc4ccc(Cl)cc4)n3)cc2)cc1`, the half-inhibitory concentration (IC50) is 27.3 µM (active) in assay [1] and > 99 µM (inactive) in assay [2].

Take `CCN1/C(=C/c2ccc3cc(C)ccc3[n+]2CC)Sc2cc(C)c(C)cc21`: the IC50 in assay [3] is > 4.87 µM (active); in assay [4], 9.2 µM (active). Besides, in assay [5], the EC50 is < 0.03 µM (active).
